Assay results from article PMC9827630, “Intra-colony venom diversity contributes to maintaining eusociality in a cooperatively breeding ant” (BMC Biology, 2023).
Where a SMILES comes first, the peptide text is derived from it. Bridges are numbered along the chain shown (N, C = ends). Where no end group is shown, it is not given here.

What was measured:
[1] = tested on: F11; experiment: Ion permeability F11; assay type: cell-based, mouse; conditions: ions listed as permeant; - = none
[2] = tested on: HEK; experiment: Ion permeability HEK; assay type: cell-based, Human; conditions: ions listed as permeant; - = none
[3] = tested on: House crickets (Acheta domesticus); experiment: Insect incapacitation assay, house crickets; assay type: in vivo
Experimental: House crickets (A. domesticus; Pisces Live Food, QLD, Australia) (average mass 50 mg), were injected intra-abdominally with 40 nmol/g of each synthetic peptide (in 2 μL water). […] Lethality was assessed at 24 h. […] To calculate dose-response curves, a four-parameter Hill equation with variable Hill slope was fitted to the data (GraphPad Prism 8.02). All data are expressed as the mean ± standard error of the mean (SEM) and are representative of at least three independent data points. The percentage of crickets incapacitated by a dose of 40 nmol/g, was compared with negative control (water injection) by one-way ANOVA Dunnett’s multiple comparisons test (GraphPad Prism8).

[4] = tested on: F11 (mouse neuroblastoma × rat dorsal root ganglion (DRG) neuron hybrid) cells; experiment: Calcium imaging of F11 cells (FLIPR); assay type: cell-based; conditions: increase in [Ca2+]i, max-min fluorescence over 300 s; read-out: EC50 (F11 cells, Table S2)
Experimental: F11 (mouse neuroblastoma × rat dorsal root ganglion (DRG) neuron hybrid) cells were cultured as previously described. Cells were maintained on Ham’s F12 media supplemented with 10 % fetal bovine serum, 100 μM hypoxanthine, 0.4 μM aminopterin, and 16 μM thymidine (Hybri-MaxTM, Sigma Aldrich). 384-well imaging plates (Corning, Lowell, MA, USA) were seeded 48 h prior to imaging resulting in 90 – 95% confluence at imaging. Cells were incubated for 30 min with Calcium 4 assay component A, as per the manufacturer’s instructions (Molecular Devices, Sunnyvale, CA) in physiological salt solution (PSS; composition in mM: 140 NaCl, 11.5 D-glucose, 5.9 KCl, 1.4 MgCl2, 1.2 NaH2PO4, 5 NaHCO3, 1.8 CaCl2, 10 HEPES) at 37°C. […] Signals were read every second for 10 s before, and 300 s after, the addition of peptides in PSS supplemented with 0.1% bovine serum albumin. All data represent mean ± SEM of a representative assay in triplicate. Fluorescence changes on peptide addition were compared to addition of negative control solution (0.1% BSA in PSS). The resulting maximum-minimum fluorescence in the 300 s period after peptide addition was recorded as the response.

[5] = tested on: Cryptococcus neoformans var. grubii H99; ATCC 208821; experiment: Antifungal growth inhibition (CO-ADD); assay type: cell-based; conditions: for Max response ± SEM: percentage growth inhibition, difference in absorbance 600 and 570 nm after resazurin, 35°C 2 h, mean ± SEM; for MIC: sigmoidal dose-response fit of growth inhibition, resazurin read-out
Experimental: (§1) Antimicrobial and cytotoxicity assays were performed by CO-ADD (The Community for Antimicrobial Drug Discovery, Institute for Molecular Bioscience, The University of Queensland). […] Percentage growth inhibition was calculated using negative controls (media only) and positive controls (no peptide). For the hemolysis assays, human whole blood was washed three times with 3 volumes of 0.9% NaCl and then resuspended in 0.9% NaCl to a concentration of 0.5 × 10^8 cells/mL. Cells were incubated for 1 h at 37°C with or without the peptide. After incubation, plates were centrifuged at 1000 g for 10 min to pellet cells and debris and hemolysis determined by measuring the supernatant absorbance at 405 nm.

[6] = tested on: Candida albicans ATCC 90028; experiment: Antifungal growth inhibition (CO-ADD); assay type: cell-based; conditions: absorbance at 530 nm; for Max response ± SEM: percentage growth inhibition, mean ± SEM; for MIC: sigmoidal dose-response fit of growth inhibition
Experimental: as §1

[7] = tested on: Female fruit flies (D. melanogaster strain Canton-S); experiment: Fruit fly injection assay (lethality, paralysis, climbing); assay type: in vivo, Drosophila melanogaster
Experimental: Female fruit flies (D. melanogaster strain Canton-S) were injected four to six days post-emergence. Female flies were used because their larger size makes injection easier. Groups of eight female flies were assayed in triplicate for each dose tested. Injection needles were formed from glass capillary tubes (#3-000-203-G/X, Drummond, Birmingham, AL, USA) using a micropipette puller (Sutter Instrument Co. Model P-97), with the fine tip manually trimmed afterwards using scissors. Needles then were filled with mineral oil, connected to a Nanoliter 2000 microinjector ([…], Bensenville, IL USA) equipped with a foot pedal, and ~1 μL of peptide solution or water aspirated. Each group of flies were immobilized by cooling for approximately 2 min on ice, and then decanted on the top of the ‘injection stage’, a petri dish filled with ice. Under a dissecting microscope, each fly was carefully impaled on the lateral thorax behind the wing, and 50.6 nL of venom peptide or water was injected. After injection, each group of flies were returned to their 5 mL plastic tube at room temperature and their behavior observed.

[8] = tested on: Escherichia coli ATCC 25922; experiment: Antimicrobial growth inhibition (CO-ADD); assay type: cell-based; conditions: absorbance at 600 nm; for Max response ± SEM: percentage growth inhibition, mean ± SEM; for MIC: sigmoidal dose-response fit of growth inhibition
Experimental: as §1

[9] = tested on: Staphylococcus aureus ATCC 43300; experiment: Antimicrobial growth inhibition (CO-ADD); assay type: cell-based; conditions: for Max response ± SEM: percentage growth inhibition, mean ± SEM; for Max response ± SEM / MIC: absorbance at 600 nm; for MIC: sigmoidal dose-response fit of growth inhibition
Experimental: as §1

[10] = tested on: Pseudomonas aeruginosa ATCC 27853; experiment: Antimicrobial growth inhibition (CO-ADD); assay type: cell-based; conditions: absorbance at 600 nm; for Max response ± SEM: percentage growth inhibition, mean ± SEM; for MIC: sigmoidal dose-response fit of growth inhibition
Experimental: as §1

[11] = tested on: Acinetobacter baumannii ATCC 19606; experiment: Antimicrobial growth inhibition (CO-ADD); assay type: cell-based; conditions: for Max response ± SEM: percentage growth inhibition, mean ± SEM; for Max response ± SEM / MIC: absorbance at 600 nm; for MIC: sigmoidal dose-response fit of growth inhibition
Experimental: as §1

[12] = tested on: Klebsiella pneumoniae ATCC 700603; experiment: Antimicrobial growth inhibition (CO-ADD); assay type: cell-based; conditions: absorbance at 600 nm; for Max response ± SEM: percentage growth inhibition, mean ± SEM; for MIC: sigmoidal dose-response fit of growth inhibition
Experimental: as §1

[13] = tested on: panel of microbes; experiment: Antimicrobial screening, summary over the panel of microbes; assay type: cell-based; conditions: all strains of the panel (for Rm54a and Rm55a: strains other than S. aureus)
Experimental: as §1

[14] = tested on: HEK293T cells; experiment: Cell viability assay, resazurin; assay type: cell-based; conditions: 100 μM peptide
Experimental: (§2) In addition to the cytotoxicity assays performed by CO-ADD, we screened the synthetic peptides for toxicity in cell viability assays using HAP1, MM96L, and HEK293T cells. peptides were reconstituted in 100% DMSO then diluted in cell media (HAP1: IMDM (Sigma Aldrich) with 10% FBS and 1% Penicillin/Streptomycin (P/S); MM96L: RPMI (Gibco) with 10% FBS, 1% P/S and 1% GlutaMAX (Gibco); HEK293T: DMEM high glucose (Gibco), with 10% FBS and 1% P/S. Trypsinized cells ([…]) were seeded in each well of a 96-well plate. 0.01 to 1000 μM peptide was added to each well after 24 h, and the cells incubated for an additional 74 h. After incubation, the medium was aspirated from each well and 150 μL of fresh medium containing a 0.002% solution of resazurin (Sigma-Aldrich) was added to the wells and incubated for 4 h at 37 °C. The absorbance was measured at 570 nm using a microplate spectrophotometer (FLUOstar Omega, BMG Labtech, Germany). Percentage cell viability at concentrations of 10 and 100 μM peptide were compared with negative control by one-way ANOVA Dunnett’s multiple comparisons test (GraphPad Prism8).

[15] = tested on: MM96L cells (melanoma cell line); experiment: Cell viability assay, resazurin; assay type: cell-based; conditions: 100 μM peptide
Experimental: as §2

[16] = tested on: Human embryonic kidney cells ATCC CRL-1573; experiment: Cytotoxicity assay (CO-ADD), resazurin; assay type: cell-based; conditions: resazurin fluorescence
Experimental: as §1

[17] = tested on: Human red blood cells; experiment: Hemolysis assay (CO-ADD); assay type: cell-based; conditions: 1 h at 37°C, absorbance at 405 nm; sigmoidal dose-response fit
Experimental: as §1

[18] = tested on: HAP1 cells; experiment: Cell viability assay, resazurin; assay type: cell-based
Experimental: as §2

Compound | ion permeability F11 [1] | ion permeability HEK [2] | EC50 [4] | Max response ± SEM [5] | MIC [5] | Max response ± SEM [6] | MIC [6] | Max response ± SEM [8] | MIC [8] | Max response ± SEM [9] | MIC [9] | Max response ± SEM [10] | MIC [10] | Max response ± SEM [11] | MIC [11] | Max response ± SEM [12] | MIC [12] | Growth inhibition over the microbial strains examined [13] | also measured
VAPIVAMAGLGLFAAAVAGLDWLSKKV-NH2 [Rm1a] | Ca2+,Na+,Th+ | Ca2+,Na+,Th+ | 5.7 µM | 36 ± 7 | >12 µM | 67 ± 4 | >12 µM | 9 ± 3 | >12 µM | -19 ± 7 | >12 µM | -2 ± 9 | >12 µM | 3 ± 2 | >12 µM | 0 ± 2 | >12 µM |  | Lethality in crickets at lowest dose tested ([3]; 40 pmol/g, intra-abdominal injection, lethality assessed at 24 h): ultimately lethal; Incapacitation of crickets ([3]; 40 nmol/g, intra-abdominal injection, observed 30 min): able to incapacitate crickets; Onset of incapacitation in crickets ([3]; 40 and 4 nmol/g, delayed at lower doses): immediate; PD50 30 min (dose required to paralyze 50% of crickets 30 min after injection) ([3]; intra-abdominal injection, n = 3 per group): 0.3 nmol/g; Flies dead ([7]; 50 pmol/g injected, mean ± SD): 25.0 ± 12.5%; Flies paralyzed ([7]; 50 pmol/g injected, mean ± SD): 95.8 ± 7.2%; Instant death of flies ([7]; 5 nmol/g injected, groups of eight female flies in triplicate, mean ± SD): 100 ± 0%; LD50 5 min (dose required to kill 50% of flies 5 min after injection) ([7]; D. melanogaster, 5 min after injection): 0.17 nmol/g; PD50 5 min (dose required to paralyze 50% of flies within 5 min) ([7]; D. melanogaster, within 5 min): 23 pmol/g
CC[C@H](C)[C@H](NC(=O)[C@H](CCC(=O)O)NC(=O)[C@H](CCC(N)=O)NC(=O)[C@H](CCSC)NC(=O)[C@H](CC(N)=O)NC(=O)[C@@H](N)CO)C(=O)N[C@@H](CCSC)C(=O)N[C@@H](CCCCN)C(=O)N[C@@H](CCCCN)C(=O)N[C@@H](CC(C)C)C(=O)N[C@H]1CSSC[C@@H](C(=O)N[C@@H](CCCCN)C(=O)N[C@@H](CCSC)C(=O)N[C@@H](CC(C)C)C(=O)NCC(=O)N[C@@H](CC(C)C)C(=O)O)NC(=O)[C@H](CCSC)NC(=O)[C@H](Cc2c[nH]c3ccccc23)NC(=O)[C@H](C)NC(=O)[C@@H]2CCCN2C(=O)[C@H](CCSC)NC(=O)[C@H](CCCCN)NC(=O)[C@H](CCCCN)NC(=O)[C@H](CC(=O)O)NC(=O)[C@H]([C@@H](C)O)NC1=O [Rm9a] (H-SNMQEIMKKLCTDKKMPAWMCKMLGL-OH; disulfide 11-21; N-terminus assumed) |  |  |  | -86 ± 5 | >11 µM | 1 ± 2 | >11 µM | 3 ± 2 | >11 µM | 3 ± 5 | >11 µM | 5 ± 3 | >11 µM | 9 ± 0 | >11 µM | 5 ± 2 | >11 µM | no inhibitory activity | Cytotoxicity against HEK293T cells [14]: cytotoxic to both HEK293T and MM96L cells; Cytotoxicity against MM96L cells [15]: cytotoxic to both HEK293T and MM96L cells
FIGGLIKFIAKFVPKILPFFQKKN-OH [Rm34a] | Ca2+,Na+,Th+ | Ca2+,Na+,Th+ | 4.8 µM | 101 ± 0 | 6.1 µM | 100 ± 2 | 0.72 µM | 98 ± 0 | 8.6 µM | 102 ± 2 | ≤0.09 µM | 85 ± 6 | 11 µM | 100 ± 0 | ≤0.09 µM | 70 ± 28 | 11 µM | complete or near-complete growth inhibition of all microbial strains | Max response ± SEM ([16]; percentage growth inhibition, 37°C 5% CO2, mean ± SEM): 57 ± 5; CC50 (concentration at 50% cytotoxicity) ([16]; sigmoidal dose-response fit): 1.7 µM; HC50 (concentration at 50% hemolytic activity) [17]: 3.3 µM; Cytotoxicity to HAP cells [18]: cytotoxic to HAP cells; HAP cell viability ([18]; 10 μM peptide, n = 3 per group): significantly reduced HAP cell viability; Motor behavior (climbing assay) ([7]; 5 nmol/g injected, climbing assay 5 min after injection, significant versus control): disrupted motor behavior; EC50 ([9]; summary of Table S2): ≤ 0.09 µM; EC50 ([11]; summary of Table S2): ≤ 0.09 µM
